What all share (type): cell-based
In assay [1] the target is T1, SP168 receptor (Homo sapiens, UniProt Q9H244). As to the kind of experiment: FLIPR Ca2+ assay, SP168 co-transfected with Gq/i3 in NIH3T3 cells (agonists). Also on record: expressed in transfected cells; host or cells: NIH3T3 cells, co-transfected with Gq/i3. The note with it: for EC50: FLIPR, peak Ca2+ increment, SP168 + Gq/i3 transfected cells. The procedure:
(§1) In order to identify SP168 receptor ligands the SP168 open reading frame was subcloned into the pcDNA3.1 expression vector under the control of the CMV promoter and transfected into mammalian cells. After allowing two days for receptor expression, the transfected cells were seeded into 96 well plates, loaded with the Ca^2+ sensitive Fluo-3AM dye and challenged with various compounds. The peak increments in Ca^2+ evoked by the test compounds were measured using the Fluorometric Inaging Plate Reader (FLIPR) system. The endogenous ligand of the SP168 receptor was purified from rat spinal cords using a series of chromatography steps and its structure was identified as being ADP by Mass spectroscopy. […] In addition to ADP, other agonists were also identified for SP168.
SP168 receptor cDNA was subdloned into the pcDNA3.1 expression vector (Invitrogen) and transiently co-transfected with chimera G protein Gq/i3 into CHO-DHFR^− (ATCC CRL-9096) cells using lipofectamine (Gibco- BRL). Chimera G protein Gq/i3 was constructed by replacing the C-terminus five amino acid residues of human Gqa with the five amino acid residue of human Gi3a (Conklin et al., Nature, 363, p274-276). pCDNA 3.1 vector DNA was also co-transfected with chimera G protein Gq/i3 as a negative control. The transfected cells were seeded into 96 well plates and incubated overnight at 37° C. in a tissue culture incubator. The growth medium was aspirated and replaced with 100 μl of loading medium (DMEM containing 1% FBS, […] Fluo-3-AM/10% pluronic acid and 2.5 mM Probenecid) and incubated for 1 hour at 37° C. The cells were subsequently washed 3 times with Hank's BSS buffer containing 20 mM HEPES, 2.5 mM Probenecid, and 0.1% BSA using the gentle setting in a Denley cell washer (Denley Instruments). The washed cells were placed in a Fluorometric Imaging Plate Reader (FLIPR) and changes in cellular fluorescence recorded after the addition of various dilutions of tissue extract fractions.
(§2) Pharmacology of SP168—The pharmacological profile of SP168 was fuirther characterized by using the FLIPR and cAMP assays. SP168 was co-transfected with Gq/i3 to NIH3T3 cells, and a variety of nucleotides were screened by the FLIPR assay. […] EC50 for background ATP was about 1600 rLM, which was similar to 2-C1-ATP but was 20 fold higher than ADP. Therefore, even if ATP was included, the order of agonist potency was 2-MeS-ATP=2-MeS-ADP>ADP=ADPPS>ATPyS=ATP.

The target in assay [2] is T1, SP168 receptor. As to the kind of experiment: cAMP assay (inhibition of adenylyl cyclase). Also noted: expressed in transfected cells. To be noted: adenylyl cyclase / cAMP pathway. On the procedure: as §1
The SP168 receptor cDNA was stably transfected into CHO-DHFR cells according standard procedures. The SP168 receptor stable cell line and wild type cell grown on 12-well plates were incubated for 2 hr with […] of medium plus 5 μCi of [3H]adenine/ml. Then 50 μl of Hepes (250 mM, pH 7.5, 50 μM Forskolin, 200 μM IBMX) with the compound to be screened was added to the cells and incubated for 10 minutes at 37 ° C. Incubations were terminated by addition of 0.8 ml of 5% trichloroacetic acid. [^3H]cAMP was purified using Dowex and alumina chromatography as previously described (Harden et al., Mol. Pharmacol. 21:570-580, 1982).

Assay [3] relates to NIH3T3. As to the kind of experiment: FLIPR assay, background response of NIH3T3 cells. The note with it: fold higher than ADP.
From the text: as §2

The results in this text go back to US20010046497A1, “G-protein coupled receptor and methods” (priority 2000, published 2001).

T1 sequence (Q9H244 whole entry): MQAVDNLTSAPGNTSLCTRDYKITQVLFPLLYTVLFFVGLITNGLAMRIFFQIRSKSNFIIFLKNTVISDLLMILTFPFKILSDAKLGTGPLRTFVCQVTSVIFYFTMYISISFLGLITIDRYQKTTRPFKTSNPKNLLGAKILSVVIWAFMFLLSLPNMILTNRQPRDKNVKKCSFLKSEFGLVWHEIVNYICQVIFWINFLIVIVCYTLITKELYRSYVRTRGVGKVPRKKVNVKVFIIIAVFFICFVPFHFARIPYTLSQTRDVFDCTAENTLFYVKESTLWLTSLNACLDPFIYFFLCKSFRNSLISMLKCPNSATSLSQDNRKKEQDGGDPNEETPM

For orientation: EC50 means the concentration at which the effect is half-maximal. As for `CSc1nc(N)c2ncn([C@@H]3O[C@H](COP(=O)(O)OP(=O)(O)OP(=O)(O)O)[C@@H](O)[C@H]3O)c2n1` [2-MeS-ATP], the EC50 in assay [1] came out at 3.4 nM.
Turning to `CSc1nc(N)c2ncn([C@@H]3O[C@H](COP(=O)(O)OP(=O)(O)O)[C@@H](O)[C@H]3O)c2n1` [2-MeS-ADP], in assay [1], the EC50 was 2.3 nM.
Same read-out and setting: the result for `Nc1nc(Cl)nc2c1ncn2[C@@H]1O[C@H](COP(=O)(O)OP(=O)(O)OP(=O)(O)O)[C@@H](O)[C@H]1O` [2-Cl-ATP] reads 470 nM.
Take `Nc1ncnc2c1ncn2[C@@H]1O[C@H](COP(=O)(O)OP(=O)(O)O)[C@@H](O)[C@H]1O` [ADP, 5′-adenosine diphosphate]: the “activation of the SP168 receptor” value in assay [2] was “activate the SP168 receptor through inhibition of adenylyl cyclase”. Also, in assay [1], the 50% effective concentration (EC50) is 74 nM.
For `Nc1ncnc2c1ncn2[C@@H]1O[C@H](COP(=O)(O)OP(=O)(O)OP(O)(O)=S)[C@@H](O)[C@H]1O` [ATPγS], in assay [1], the EC50 was found to be 1200 nM.
Same read-out and setting: the result for `Nc1ncnc2c1ncn2[C@@H]1O[C@H](COP(=O)(O)OP(O)(O)=S)[C@@H](O)[C@H]1O` [ADPβS] reads 89 nM.
`Nc1ncnc2c1ncn2[C@@H]1O[C@H](COP(=O)(O)OP(=O)(O)OP(=O)(O)O)[C@@H](O)[C@H]1O` [ATP]: the “EC50 of background ATP relative to ADP” value in assay [3] was found to be 20 fold. Besides, in assay [1] (NIH3T3, FLIPR), the “shift of dosage curve by SP168 transfection” value is “did not induce the shift of dosage curve”.
